According to patent US20060034941A1, “Organ preconditioning, arrest, protection, preservation and recovery” (priority 2002, published 2006):
Read-outs that look alike come from different tables or passages of the source.

Columns and labels:
[1] = biological target: human NK(1) receptor (Homo sapiens, UniProt P25103); details: cited from earlier work
[2] = system: in vivo rabbit model; details: reduced MAP similar to CCPA; cited from earlier work
[3] = system: A-V nodal and SA pacemakers; details: cited from earlier work
[4] = system: canine neutrophils stimulated by platelet activating factor; experiment: In vitro superoxide anion generation by PAF-activated neutrophils; type: cell-based; details: PAF 100 nmol; 0.1 to 10 uM L, 0.1 to 100 uM ADO; synergy at 1 uM, 5 uM and 10 uM
Description: PMNs were isolated using the Ficoll-Pacque (Sigma Chemical, St. Louis, Mo.) technique. The cells were adjusted to ˜9×10^7 cells/ml. […] Superoxide anion (—O.2) production by neutrophils stimulated by platelet activating factor (100 nmol) were determined by measuring the superoxide dismutase-inhibitable reduction of ferricytochrome c to ferrocytochrome c spectrophotometrically at 550 nm using a V-Max Microtiter Plate Reader (Molecular Devices, Palo Alto, Calif.). […] Concentrations indicated are final concentrations in each cuvette.

[5] = i.v., cited from earlier work

Sequence of human NK(1) receptor (P25103 whole entry): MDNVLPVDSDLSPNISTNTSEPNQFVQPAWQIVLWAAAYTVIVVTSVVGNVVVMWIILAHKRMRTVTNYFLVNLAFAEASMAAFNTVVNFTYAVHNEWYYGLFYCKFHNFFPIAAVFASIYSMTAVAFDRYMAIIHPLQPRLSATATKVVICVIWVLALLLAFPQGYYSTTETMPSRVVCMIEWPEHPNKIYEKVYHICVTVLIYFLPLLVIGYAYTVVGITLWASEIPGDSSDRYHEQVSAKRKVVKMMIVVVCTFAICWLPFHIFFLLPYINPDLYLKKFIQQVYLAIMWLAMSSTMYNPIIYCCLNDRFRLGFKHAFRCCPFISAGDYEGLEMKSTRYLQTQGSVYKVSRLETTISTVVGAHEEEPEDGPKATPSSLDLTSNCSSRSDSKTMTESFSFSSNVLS

Row | Compound | effect on infarct size [2] | superoxide anion generation [4] | further results
1 | Cc1cccc(C)c1NC(=O)C[C@H]1CCN(C(=O)c2cc(C(F)(F)F)cc(C(F)(F)F)c2)[C@@H](Cc2ccccc2)C1.O=C(O)C[C@H](O)C(=O)O (relative stereo) [R116301, (2R-trans)-4-[1-[3,5-bis(trifluoromethyl)benzoyl]-2-(phenylmethyl)-4-piperidinyl]-N-(2,6-dimethylphenyl)-1-acetamide (S)-Hydroxybutanedioate] | – | – | Ki [1]: 0.45 nM; selectivity toward NK(2) and NK(3) receptors [1]: over 200 fold
2 | CCCCC#Cc1nc(N)c2ncn([C@@H]3O[C@H](C(=O)NCC)[C@@H](O)[C@H]3O)c2n1 [2HE-NECA, 2-hexynyl-5′-N-ethyl-carboxamindoadenosine] | did not change infarct size | – | –
3 | Nc1ncnc2c1ncn2[C@@H]1O[C@H](CO)[C@@H](O)[C@H]1O [Ado-only, adenosine] | – | reduce superoxide anion generation | effectiveness in slowing the conductance of A-V nodal relative to SA pacemakers [3]: 30 times
4 | CCN(CC)CC(=O)Nc1c(C)cccc1C [Lido-only, lidocaine] | – | reduce superoxide anion generation | maximum safe dose ([5]; with epinephrine): ~7 mg/kg; maximum safe dose ([5]; without epinephrine): approximately 4 mg/kg
5 | CCNC(=O)[C@H]1O[C@@H](n2cnc3c(N)ncnc32)[C@H](O)[C@@H]1O [NECA, 5′-N-ethyl-carboxamindoadenosine] | did not change infarct size | – | –
6 | CC(C)NCC(O)COc1ccc(CC(N)=O)cc1 (stereo not shown) [atenolol] | did not change infarct size | – | –
